pIC50: −log10 of the molar value. Like-named read-outs stand apart in the source and are kept apart here.
Legend:
[1] = test system: Collagen-induced arthritis in DBA/1J mice; assay: Collagen-induced arthritis (CIA) mouse model, macroscopic paw scoring; type: in vivo; conditions: for CIA index (arthritic score of test group / vehicle group x 100): 30 mg/kg/day once daily oral gavage, vehicle = 100.0
Protocol: CIA mouse model was induced in DBA/1J mice (Japan Charles River Breeding Laboratories, Kanagawa, Japan) with 5 to 6 weeks of age. Animals were maintained at a temperature of 20±5° C. and a relative humidity of 40˜60%.
Bovine type II collagen (CII, 2 mg/ml dissolved in 0.05 M acetic acid, Chondrex, Redmond, Wash.) was emulsified in equal volumes of Freund's complete adjuvant (4 mg/ml of Mycobacterium tuberculosis strain H37Ra; Chondrex, Redmond, Wash.). On day 0, mice were immunized intradermally at the base of the tail with 100 μg bovine type II collagen emulsified in Freund's complete adjuvant. On day 21, all mice were boosted with an intraperitoneal injection of 100 μg type II collagen.
These compounds were dissolved in NMP/20% cyclodextrin/PEG400 5:45:50 solution and filtered by […] membrane filter. All the test substances were administered once daily at 30 mg/kg/day by oral gavage for 3 weeks.
The gradual onset of arthritis usually starts approximately 3 weeks after initial immunization. The progression of CIA was evaluated by the macroscopic scoring of paws at intervals of 3 days. The edema and swelling of each paw was scored visually as was described previously, using a scale of 0-4, where 0=no visible abnormalities, 1=mild redness or swelling of the wrist or up to three inflamed digits, 2=more than three inflamed digits or moderate redness and swelling of the ankle or wrist, 3=severe ankle and wrist inflammation, 4=extensive ankle and wrist inflammation including all digits. Therefore, the score of each mouse was calculated for the four limbs (maximum total score of 16 for each mouse) (Courtenay J S, Dallman M J, Dayan A D, et al., Immunisation against heterologous type II collagen induces arthritis in mice, Nature, 1980, 283, 666-668)
Arthritis was considered to be present if the score was >2. The blind scoring was performed by four independent observers. In this study, data was calculated by following equation. […] Results

THP-1 cells = assay: SYK-dependent TNF-α release assay (IgG stimulation), ELISA; type: cell-based; conditions: THP-1 cells on human IgG-coated plate, 18 hours; read-out: TNF-α release inhibition, IgG stimulation IC50
Protocol: In order to address cellular potency of Compounds of Formula (I), TNF-a production was measured on treatment of a series of concentration of SYK inhibitor in THP-1 cells.
For SYK-dependent TNF-α release assay (i.e., via IgG stimulation), THP-1 cells derived from human monocytic cells were obtained from the American Type Culture Collection (ATCC, Manassas, Va.). This cell line was maintained with a Roswell Park Memorial Institute (RPMI) medium (GIBCO) containing 10% fetal bovine serum (FBS; GIBCO) and 0.05 mM solution of 2-mercaptoethanol. The THP-1 cells were seeded at 1×10^5 cells/100 μL/well into human IgG (10 ng/well, INVITROGEN)-coated 96 well culture plate, and serially diluted compound was then added. After an 18 hours of incubation period at 37° C., supernatants were collected for the determination of the TNF-α level by enzyme-linked immunosorbent assay (ELISA), and the remaining cells were subjected to an MTT (yellow tetrazolium salt) assay to determine the cytotoxic effects of the compound. The IC50 value of the test compound was calculated at Gradpad Prism 5 unless otherwise specified.

[2] = test system: Human peripheral CD19+ B cells; assay: Cellular SLE model: immunoglobulin production in human peripheral B cells stimulated via TLR9 (ODN2006); type: cell-based; conditions: for pIC50: 144 h, human B cell, ODN2006 and IL-2, 6 days; for Inhibition of IgG and IgM production (in words): TLR9 stimulated by ODN2006 and IFNα
Text: Systemic lupus erythematosus (SLE) is a chronic inflammatory autoimmune disease and can affect several organs and systems. It is characterized by high production of autoantibodies against nuclear compounds. TLR7/8/9 are responsible for nucleic acid recognition and they trigger proinflammatory responses through activation of […] and Type I IFN production, making a bridge between the innate and the adaptive immune systems. TLR9 signaling pathway was adopted for cellular SLE model using human peripheral B cells to test potency of SYK inhibitor of Formula (I).
Human peripheral CD19+ B cells from an adult healthy donor were purchased from Sanguine Biosciences (Sherman Oaks, Calif.). B cells were cultured in 96-well plates with complete RPMI 1640 medium (Corning, Tewksbury, Mass.) supplemented with 10% heat-inactivated FBS (Life Technologies, Grand Island, N.Y.) and penicillin/streptomycin (Corning). B cells were stimulated with 1 μM ODN2006 (InvivoGen, San Diego, Calif.) and 20 ng/ml IFNα (PBL Assay Science, Piscataway, N.J.) for 3 days for toll-like receptor-9 (TLR-9)-mediated B cell growth. To differentiate naïve B cells into plasma cells, peripheral B cells were differentiated with 50 nM ODN2006 and 10 ng/ml IL-2 in a presence of various concentrations of SYK inhibitors for 6 days. Culture supernatants were collected and IgM and IgG production was measured using human IgM or IgG ELISA kit (BioLegend).

SUDHL6 = assay: DLBCL cell proliferation, ATPLite assay; type: cell-based, human; conditions: for pIC50: Homo sapiens, SU-DHL-6, SUDHL6, 72 hours, read-out: Inhibition of proliferation IC50; for Inhibition of proliferation (in words): SUDHL6
Text: (§1) Several lines of evidence support the role of B cell receptor (BCR)-mediated survival signals in certain B cell malignancies such as non-Hodgkin lymphomas (NHL) including diffuse large B cell lymphoma (DLBCL). B cell receptor (BCR) signaling pathway components represent promising treatment targets in diffuse large B cell lymphoma (DLBCL) and additional B cell tumors. In order to address whether SYK inhibitor of Compounds of Formula (I), cellular viability of diffuse large B cell lymphoma (DLBCL) cells was measured on treatment of a series of concentration of SYK inhibitor.
(§2) The DLBCL cells, SUDHL4, SUDHL6 and OCI-LY1 […] were obtained from the American Type Culture Collection (ATCC, Manassas, Va., USA) or DSMZ (Braunschweig, Germany). […] The SUDHL4, SUDHL6 and OCI-LY1 cells were seeded at 1×10^5 cells/100 μL/well into 96 well culture plate, and serially diluted compound was then added. After an 72 hours of incubation period at 37° C., cells were subjected to an ATPLite assay (PerkinElmer) to determine the cytotoxic effects of the compound. The IC50 value of the test compound was calculated at Gradpad Prism 5 unless otherwise specified.

OCI-LY1 = assay: DLBCL cell proliferation, ATPLite assay; type: cell-based, human; conditions: for pIC50: Homo sapiens, OCI-LY1, 72 hours, read-out: Inhibition of proliferation IC50; for Inhibition of proliferation (in words): OCI-LY1
Text: as §1, §2

SUDHL4 = assay: DLBCL cell proliferation, ATPLite assay; type: cell-based, human; conditions: for pIC50: Homo sapiens, SU-DHL-4, SUDHL4, 72 hours, read-out: Inhibition of proliferation IC50; for Inhibition of proliferation (in words): SUDHL4
Text: as §1, §2

full-length human SYK = full-length human SYK (Homo sapiens (Human), UniProt P43405); assay: Inhibition of enzymatic SYK kinase activity (LANCE Ulight TK peptide); type: biochemical; conditions: ATP at Km (15 uM), 30 min pre-incubation
Protocol: Compounds of the present invention were assayed to measure their capacity to inhibit a spleen tyrosine kinase (SYK).
Compounds of the invention were initially diluted to 10 mM in 100% DMSO (CALBIOCHEM™) for storage and made into kinase buffer solution to create a compound concentration ranging from 1 uM and 10 uM. Serial dilutions of compounds of the invention were dispensed into a 96-well plate (GREINER BIOSCIENCES™) at 6 μL each. Purified full-length human SYK (CARNA BIOSCIENCES™) were diluted in kinase buffer and added to the compound solutions and pre-incubated for 30 minutes at room temperature. […] The reaction mixture was incubated for 1 hour. Following the incubation, the stop solution made with EDTA, water, and Lance detection buffer ([…]™) was added (12 μL each) to stop phosphorylation.

[3] = read-out: Inhibition of immunoglobulin production, IgG IC50
[4] = read-out: Inhibition of immunoglobulin production, IgM IC50

| Compound | Inhibition in arthritis phenotype indicated by CIA, compared with R788 (in words) ([1]; 30 mg/kg/day oral, versus R788) | CIA index (arthritic score of test group / vehicle group x 100) ([1]; day 4) [%] | CIA index (arthritic score of test group / vehicle group x 100) ([1]; day 7) [%] | CIA index (arthritic score of test group / vehicle group x 100) ([1]; day 10) [%] | CIA index (arthritic score of test group / vehicle group x 100) ([1]; day 13) [%] | CIA index (arthritic score of test group / vehicle group x 100) ([1]; day 17) [%] | CIA index (arthritic score of test group / vehicle group x 100) ([1]; day 19) [%] | pIC50 (THP-1 cells) | pIC50 [2, 3] | pIC50 [2, 4] | Inhibition of IgG and IgM production (in words) [2] | pIC50 (SUDHL6) | Inhibition of proliferation (in words) (SUDHL6) | pIC50 (OCI-LY1) | Inhibition of proliferation (in words) (OCI-LY1) | pIC50 (SUDHL4) | Inhibition of proliferation (in words) (SUDHL4) | pIC50 (full-length human SYK) |
| --- | --- | --- | --- | --- | --- | --- | --- | --- | --- | --- | --- | --- | --- | --- | --- | --- | --- | --- |
| Cc1nn(-c2ccnc(Nc3ccc4c(c3)c(C(=O)C3CC3)cn4C)n2)cc1CN1C[C@H](O)CO1 [Compound 1, (S)-cyclopropyl(5-(4-(4-((4-hydroxyisoxazolidin-2-yl)methyl)-3-methyl-1H-pyrazol-1-yl)pyrimidin-2-ylamino)-1-methyl-1H-indol-3-yl)methanone] | stronger inhibition | 3.0 ± 2.8 | 24.0 ± 9.2 | 40.1 ± 13.8 | 36.2 ± 12.0 | 33.5 ± 10.5 | 33.6 ± 10.4 | 7.28 | 6.53 | 6.63 | potent inhibition | 5.55 | potent inhibition | 5.74 | potent inhibition | 5.97 | potent inhibition | – |
| Cn1cc(C(=O)C2CC2)c2cc(Nc3nccc(-n4cc(CN5C[C@H](O)CO5)cn4)n3)ccc21 [Compound 30, (S)-cyclopropyl(5-(4-(4-((4-hydroxyisoxazolidin-2-yl)methyl)-1H-pyrazol-1-yl)pyrimidin-2-ylamino)-1-methyl-1H-indol-3-yl)methanone] | – | – | – | – | – | – | – | 7.77 | 6.73 | 7.05 | potent inhibition | 6.03 | potent inhibition | 5.64 | potent inhibition | 6.02 | potent inhibition | 8.61 |

— patent publication US9212178B2, “Substituted pyrimidine compounds and their use as SYK inhibitors” (Genosco, priority 2013, dated 2015)
